From ChEMBL document CHEMBL1149724, “Nakahalene and Cytotoxic principles of Formosan Rhamnus Species” (1992)
Values after ≈ are worked out from the molar mass of the structure shown.

Legend:
KB = assay: Cytotoxicity against human KB cells; format: functional; conditions: read-out: ED50 (the source's name)
[1] = Cytotoxicity against human PLC/PRF/5 cells; format: functional; conditions: read-out: ED50 (the source's name)

| SMILES | EC50 (KB) [µg/mL] | EC50 [1] [µg/mL] |
| --- | --- | --- |
| Cc1cc(O)c2c(c1)C(=O)c1cccc(O)c1C2=O [CHRYSOPHANOL] | 5.68 (≈ 22.3 µM) | 3.23 (≈ 12.7 µM) |
| Cc1cc(O)c2c(c1)C(=O)c1cc(O)cc(O)c1C2=O [EMODIN] | 3.46 (≈ 12.8 µM) | 5.91 (≈ 21.9 µM) |
| Cc1cc(O)c2c(c1)C(=O)c1cc(O[C@@H]3OC[C@](O)(CO)[C@H]3O)cc(O)c1C2=O [FRANGULIN B] | 2.49 (≈ 6.19 µM) | 0.8 (≈ 1.99 µM) |
| COc1cc(O)c2c(c1)C(=O)c1cc(C)cc(O)c1C2=O [PHYSCION] | 1.55 (≈ 5.45 µM) | 1.44 (≈ 5.07 µM) |
